According to patent publication US7524869B2, “Taxanes having a C10 ester substituent” (Florida State University Research Foundation, Inc., priority 2000, dated 2009):

system: HCT116; assay: In vitro cytotoxicity measured by the cell colony formation assay; assay type: cell-based; conditions: HCT116 cells, 72 h drug incubation, colonies counted after 7 days; ID50 = drug concentration producing 50% inhibition of colony formation; read-out: IN VITRO ID 50 (nm) HCT116

| SMILES | IC50 [nM] |
| --- | --- |
| C/C=C/C(=O)O[C@H]1C(=O)[C@@]2(C)C([C@H](OC(=O)c3ccccc3)[C@]3(O)C[C@H](OC(=O)[C@H](O)[C@@H](NC(=O)OC(C)(C)C)c4ccsc4)C(C)=C1C3(C)C)[C@]1(OC(C)=O)CO[C@@H]1C[C@@H]2O (stereo partly drawn) [Compound 2408] | < 1 |
| CCC(=O)O[C@H]1C(=O)[C@@]2(C)C([C@H](OC(=O)c3ccccc3)[C@]3(O)C[C@H](OC(=O)[C@H](O)[C@@H](NC(=O)OCC(C)C)C4CC4)C(C)=C1C3(C)C)[C@]1(OC(C)=O)CO[C@@H]1C[C@@H]2O (stereo partly drawn) [Compound 4799] | < 1 |
| CCCC(=O)O[C@H]1C(=O)[C@@]2(C)C([C@H](OC(=O)c3ccccc3)[C@]3(O)C[C@H](OC(=O)[C@H](O)[C@@H](NC(=O)OC(C)(C)C)c4ccoc4)C(C)=C1C3(C)C)[C@]1(OC(C)=O)CO[C@@H]1C[C@@H]2O (stereo partly drawn) [Compound 0999] | < 1 |
| CCCC(=O)O[C@H]1C(=O)[C@@]2(C)C([C@H](OC(=O)c3ccccc3)[C@]3(O)C[C@H](OC(=O)[C@H](O)[C@@H](NC(=O)OC(C)C)c4cccs4)C(C)=C1C3(C)C)[C@]1(OC(C)=O)CO[C@@H]1C[C@@H]2O (stereo partly drawn) [Compound 3909] | < 1 |
| CC(=O)O[C@@]12CO[C@@H]1C[C@H](O)[C@@]1(C)C(=O)[C@H](OC(=O)C(C)C)C3=C(C)[C@@H](OC(=O)[C@H](O)[C@@H](NC(=O)OC(C)(C)C)c4cccnc4)C[C@@](O)([C@@H](OC(=O)c4ccccc4)C12)C3(C)C (stereo partly drawn) [Compound 2242] | < 10 |
| CCCC(=O)O[C@H]1C(=O)[C@@]2(C)C([C@H](OC(=O)c3ccccc3)[C@]3(O)C[C@H](OC(=O)[C@H](O)[C@@H](NC(=O)OCC(C)C)c4ccco4)C(C)=C1C3(C)C)[C@]1(OC(C)=O)CO[C@@H]1C[C@@H]2O (stereo partly drawn) [Compound 3110] | < 1 |
| CCCC(=O)O[C@H]1C(=O)[C@@]2(C)C([C@H](OC(=O)c3ccccc3)[C@]3(O)C[C@H](OC(=O)[C@H](O)[C@@H](NC(=O)c4cccs4)c4ccco4)C(C)=C1C3(C)C)[C@]1(OC(C)=O)CO[C@@H]1C[C@@H]2O (stereo partly drawn) [Compound 3656] | < 1 |
| CCC(=O)O[C@H]1C(=O)[C@@]2(C)C([C@H](OC(=O)c3ccccc3)[C@]3(O)C[C@H](OC(=O)[C@H](O)[C@@H](NC(=O)OCC(C)C)c4ccsc4)C(C)=C1C3(C)C)[C@]1(OC(C)=O)CO[C@@H]1C[C@@H]2O (stereo partly drawn) [Compound 4711] | < 10 |
| CC(=O)O[C@@]12CO[C@@H]1C[C@H](O)[C@@]1(C)C(=O)[C@H](OC(=O)C3CC3)C3=C(C)[C@@H](OC(=O)[C@H](O)[C@H](C=C(C)C)NC(=O)c4ccccc4)C[C@@](O)([C@@H](OC(=O)c4ccccc4)C12)C3(C)C (stereo partly drawn) [Compound 0890] | < 1 |
| C/C=C/C(=O)N[C@@H](c1ccoc1)[C@@H](O)C(=O)O[C@H]1C[C@@]2(O)[C@@H](OC(=O)c3ccccc3)C3[C@](C)(C(=O)[C@H](OC(=O)C4CC4)C(=C1C)C2(C)C)[C@@H](O)C[C@H]1OC[C@@]31OC(C)=O (stereo partly drawn) [Compound 4944] | < 1 |
| CCC(=O)O[C@H]1C(=O)[C@@]2(C)C([C@H](OC(=O)c3ccccc3)[C@]3(O)C[C@H](OC(=O)[C@H](O)[C@@H](NC(=O)OC(C)(C)C)c4cccs4)C(C)=C1C3(C)C)[C@]1(OC(C)=O)CO[C@@H]1C[C@@H]2O (stereo partly drawn) [Compound 0550] | < 10 |
| CCCC(=O)O[C@H]1C(=O)[C@@]2(C)C([C@H](OC(=O)c3ccccc3)[C@]3(O)C[C@H](OC(=O)[C@H](O)[C@@H](NC(=O)c4ccccc4)c4cccs4)C(C)=C1C3(C)C)[C@]1(OC(C)=O)CO[C@@H]1C[C@@H]2O (stereo partly drawn) [Compound 3258] | < 1 |
| CC(=O)OC12COC1CC(O)C1(C)C(=O)C(OC(=O)c3cccs3)C3=C(C)C(OC(=O)C(O)C(NC(=O)OC(C)(C)C)c4ccc([N+](=O)[O-])cc4)CC(O)(C(OC(=O)c4ccccc4)C21)C3(C)C (stereo not drawn) [Compound 1911] | < 10 |
| CCC(=O)O[C@H]1C(=O)[C@@]2(C)C([C@H](OC(=O)c3ccccc3)[C@]3(O)C[C@H](OC(=O)[C@H](O)[C@@H](NC(=O)c4ccccc4)c4ccco4)C(C)=C1C3(C)C)[C@]1(OC(C)=O)CO[C@@H]1C[C@@H]2O (stereo partly drawn) [Compound 0663] | < 1 |
| CCC(=O)O[C@H]1C(=O)[C@@]2(C)C([C@H](OC(=O)c3ccccc3)[C@]3(O)C[C@H](OC(=O)[C@H](O)[C@@H](NC(=O)OC(C)(C)C)c4cccnc4)C(C)=C1C3(C)C)[C@]1(OC(C)=O)CO[C@@H]1C[C@@H]2O (stereo partly drawn) [Compound 0517] | < 10 |
| CCCC(=O)N[C@@H](c1ccco1)[C@@H](O)C(=O)O[C@H]1C[C@@]2(O)[C@@H](OC(=O)c3ccccc3)C3[C@](C)(C(=O)[C@H](OC(=O)C4CC4)C(=C1C)C2(C)C)[C@@H](O)C[C@H]1OC[C@@]31OC(C)=O (stereo partly drawn) [Compound 4062] | < 1 |
| CC(=O)OC12COC1CC(O)C1(C)C(=O)C(OC(=O)c3cccs3)C3=C(C)C(OC(=O)C(O)C(C=C(C)C)NC(=O)OC(C)(C)C)CC(O)(C(OC(=O)c4ccccc4)C21)C3(C)C (stereo not drawn) [Compound 1879] | < 10 |
| CC(=O)O[C@@]12CO[C@@H]1C[C@H](O)[C@@]1(C)C(=O)[C@H](OC(=O)C3CC3)C3=C(C)[C@@H](OC(=O)[C@H](O)[C@@H](NC(=O)OC(C)(C)C)c4ccccc4)C[C@@](O)([C@@H](OC(=O)c4ccccc4)C12)C3(C)C (stereo partly drawn) [Compound 0882] | < 1 |

| SMILES | IC50 [nM] |
| --- | --- |
| CC(=O)O[C@@]12CO[C@@H]1C[C@H](O)[C@@]1(C)C(=O)[C@H](OC(=O)C(C)C)C3=C(C)[C@@H](OC(=O)[C@H](O)[C@@H](NC(=O)OC(C)(C)C)C(C)C)C[C@@](O)([C@@H](OC(=O)c4ccccc4)C12)C3(C)C (stereo partly drawn) [Compound 2306] | < 10 |
| CCC(=O)O[C@H]1C(=O)[C@@]2(C)C([C@H](OC(=O)c3ccccc3)[C@]3(O)C[C@H](OC(=O)[C@H](O)[C@@H](NC(=O)OC(C)(C)C)c4ccoc4)C(C)=C1C3(C)C)[C@]1(OC(C)=O)CO[C@@H]1C[C@@H]2O (stereo partly drawn) [Compound 0549] | < 10 |
| C/C=C/C(=O)O[C@H]1C(=O)[C@@]2(C)C([C@H](OC(=O)c3ccccc3)[C@]3(O)C[C@H](OC(=O)[C@H](O)[C@@H](NC(=O)OC(C)(C)C)c4cccnc4)C(C)=C1C3(C)C)[C@]1(OC(C)=O)CO[C@@H]1C[C@@H]2O (stereo partly drawn) [Compound 2353] | < 10 |
| CCCC(=O)N[C@@H](c1cccs1)[C@@H](O)C(=O)O[C@H]1C[C@@]2(O)[C@@H](OC(=O)c3ccccc3)C3[C@](C)(C(=O)[C@H](OC(=O)C4CC4)C(=C1C)C2(C)C)[C@@H](O)C[C@H]1OC[C@@]31OC(C)=O (stereo partly drawn) [Compound 3132] | < 1 |
| CCC(=O)O[C@H]1C(=O)[C@@]2(C)C([C@H](OC(=O)c3ccccc3)[C@]3(O)C[C@H](OC(=O)[C@H](O)[C@@H](NC(=O)OC(C)(C)C)c4ccco4)C(C)=C1C3(C)C)[C@]1(OC(C)=O)CO[C@@H]1C[C@@H]2O (stereo partly drawn) [Compound 0536] | < 1 |
| CCCC(=O)O[C@H]1C(=O)[C@@]2(C)C([C@H](OC(=O)c3ccccc3)[C@]3(O)C[C@H](OC(=O)[C@H](O)[C@@H](NC(=O)OCC(C)C)c4ccsc4)C(C)=C1C3(C)C)[C@]1(OC(C)=O)CO[C@@H]1C[C@@H]2O (stereo partly drawn) [Compound 4834] | < 10 |
| CCC(=O)O[C@H]1C(=O)[C@@]2(C)C([C@H](OC(=O)c3ccccc3)[C@]3(O)C[C@H](OC(=O)[C@H](O)[C@@H](NC(=O)OC(C)(C)C)C(C)C)C(C)=C1C3(C)C)[C@]1(OC(C)=O)CO[C@@H]1C[C@@H]2O (stereo partly drawn) [Compound 0583] | < 10 |
| C/C=C/C(=O)O[C@H]1C(=O)[C@@]2(C)C([C@H](OC(=O)c3ccccc3)[C@]3(O)C[C@H](OC(=O)[C@H](O)[C@@H](NC(=O)OC(C)(C)C)C4CCC4)C(C)=C1C3(C)C)[C@]1(OC(C)=O)CO[C@@H]1C[C@@H]2O (stereo partly drawn) [Compound 2424] | < 10 |
| C/C=C/C(=O)O[C@H]1C(=O)[C@@]2(C)C([C@H](OC(=O)c3ccccc3)[C@]3(O)C[C@H](OC(=O)[C@H](O)[C@@H](NC(=O)OC(C)(C)C)c4ccccc4)C(C)=C1C3(C)C)[C@]1(OC(C)=O)CO[C@@H]1C[C@@H]2O (stereo partly drawn) [Compound 2442] | < 1 |
| CC(=O)O[C@@]12CO[C@@H]1C[C@H](O)[C@@]1(C)C(=O)[C@H](OC(=O)C=C(C)C)C3=C(C)[C@@H](OC(=O)[C@H](O)[C@H](C=C(C)C)NC(=O)OC(C)(C)C)C[C@@](O)([C@@H](OC(=O)c4ccccc4)C12)C3(C)C (stereo partly drawn) [Compound 2455] | < 10 |
| CC(=O)OC12COC1CC(O)C1(C)C(=O)C(OC(=O)c3ccco3)C3=C(C)C(OC(=O)C(O)C(NC(=O)OC(C)(C)C)C4CCC4)CC(O)(C(OC(=O)c4ccccc4)C21)C3(C)C (stereo not drawn) [Compound 2199] | < 10 |
| CC(=O)OC12COC1CC(O)C1(C)C(=O)C(OC(=O)c3ccco3)C3=C(C)C(OC(=O)C(O)C(NC(=O)OC(C)(C)C)c4ccccn4)CC(O)(C(OC(=O)c4ccccc4)C21)C3(C)C (stereo not drawn) [Compound 2111] | < 1 |
| CCCC(=O)O[C@H]1C(=O)[C@@]2(C)C([C@H](OC(=O)c3ccccc3)[C@]3(O)C[C@H](OC(=O)[C@H](O)[C@@H](NC(=O)c4ccco4)c4cccs4)C(C)=C1C3(C)C)[C@]1(OC(C)=O)CO[C@@H]1C[C@@H]2O (stereo partly drawn) [Compound 3352] | < 1 |
| CCC(=O)O[C@H]1C(=O)[C@@]2(C)C([C@H](OC(=O)c3ccccc3)[C@]3(O)C[C@H](OC(=O)[C@H](O)[C@@H](NC(=O)OC(C)(C)C)c4ccccc4)C(C)=C1C3(C)C)[C@]1(OC(C)=O)CO[C@@H]1C[C@@H]2O (stereo partly drawn) [Compound 0611] | < 10 |
| CCCC(=O)O[C@H]1C(=O)[C@@]2(C)C([C@H](OC(=O)c3ccccc3)[C@]3(O)C[C@H](OC(=O)[C@H](O)[C@@H](NC(=O)c4ccco4)c4ccco4)C(C)=C1C3(C)C)[C@]1(OC(C)=O)CO[C@@H]1C[C@@H]2O (stereo partly drawn) [Compound 3686] | < 1 |
| C/C=C/C(=O)O[C@H]1C(=O)[C@@]2(C)C([C@H](OC(=O)c3ccccc3)[C@]3(O)C[C@H](OC(=O)[C@H](O)[C@@H](NC(=O)OC(C)(C)C)c4cccs4)C(C)=C1C3(C)C)[C@]1(OC(C)=O)CO[C@@H]1C[C@@H]2O (stereo partly drawn) [Compound 2392] | < 1 |
| C/C=C/C(=O)O[C@H]1C(=O)[C@@]2(C)C([C@H](OC(=O)c3ccccc3)[C@]3(O)C[C@H](OC(=O)[C@H](O)[C@@H](NC(=O)OC(C)(C)C)C(C)C)C(C)=C1C3(C)C)[C@]1(OC(C)=O)CO[C@@H]1C[C@@H]2O (stereo partly drawn) [Compound 2413] | < 10 |
| CCC(=O)O[C@H]1C(=O)[C@@]2(C)C([C@H](OC(=O)c3ccccc3)[C@]3(O)C[C@H](OC(=O)[C@H](O)[C@@H](NC(=O)OC(C)(C)C)c4ccsc4)C(C)=C1C3(C)C)[C@]1(OC(C)=O)CO[C@@H]1C[C@@H]2O (stereo partly drawn) [Compound 0562] | < 1 |
